Tests used:
Format in all cases: in vivo
[1] = system: ragweed (common ragweed, Ambrosia elatior); assay: Test B pre-/postemergence plant response
Procedure, shortened: (§1)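 Steps: plant seeds in loam soil–sand mix; spray soil preemergence, and in parallel spray 2–10 cm one- to two-leaf plants postemergence; hold ~10 days in greenhouse; visually rate injury against untreated controls (0 = no effect, 100 = complete control).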

[2] = system: kochia (Kochia scoparia); assay: Test B pre-/postemergence plant response
Procedure, shortened: as §1

[3] = system: Italian ryegrass (Lolium multiflorum); assay: Test B pre-/postemergence plant response
Procedure, shortened: as §1

[4] = system: pigweed (Amaranthus retroflexus); assay: Test B pre-/postemergence plant response
Procedure, shortened: as §1

[5] = system: corn (Zea mays); assay: Test B pre-/postemergence plant response
Procedure, shortened: as §1

[6] = system: wheat (Triticum aestivum); assay: Test B pre-/postemergence plant response
Procedure, shortened: as §1

[7] = system: barnyardgrass (Echinochloa crus-galli); assay: Test B pre-/postemergence plant response
Procedure, shortened: as §1

[8] = system: giant foxtail (Setaria faberii); assay: Test B pre-/postemergence plant response
Procedure, shortened: as §1

[9] = system: small-flower umbrella sedge (Cyperus difformis); assay: Test C flooded paddy test plant response; conditions: Flood, 250 g ai/ha; scale of 0 to 100 where 0 is no effect and 100 is complete control; 13 to 15 days
Procedure, shortened: (§2)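 Plants grown to the 2-leaf stage; pots flooded to 3 cm above soil, test compounds applied directly to paddy water, depth maintained throughout. Greenhouse for 13 to 15 days, then visual rating versus controls on a 0–100 scale (0 no effect, 100 complete control).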

[10] = system: rice (Oryza sativa); assay: Test C flooded paddy test plant response; conditions: Flood, 250 g ai/ha; scale of 0 to 100 where 0 is no effect and 100 is complete control; 13 to 15 days
Procedure, shortened: as §2

[11] = system: barnyardgrass (Echinochloa crus-galli); assay: Test C flooded paddy test plant response; conditions: Flood, 250 g ai/ha; scale of 0 to 100 where 0 is no effect and 100 is complete control; 13 to 15 days
Procedure, shortened: as §2

[12] = system: ducksalad (Heteranthera limosa); assay: Test C flooded paddy test plant response; conditions: Flood, 250 g ai/ha; scale of 0 to 100 where 0 is no effect and 100 is complete control; 13 to 15 days
Procedure, shortened: as §2

[13] = system: blackgrass (Alopecurus myosuroides); assay: Test B postemergence plant response
Procedure, shortened: (§3)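 Visual injury rating, 0–100 (0 = no effect, 100 = complete control), vs untreated controls ~10 days after postemergence spray; greenhouse; potted loam soil/sand; plants 2–10 cm, 1–2 leaf stage.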

[14] = system: galium (catchweed bedstraw, Galium aparine); assay: Test B postemergence plant response
Procedure, shortened: as §3

[15] = 31 g ai/ha, Preemergence, 0 to 100 scale where 0 is no effect and 100 is complete control
[16] = 125 g ai/ha, postemergence, 0 to 100 scale, 0 no effect, 100 complete control
[17] = Postemergence, 31 g ai/ha, 0 to 100 scale (0 no effect, 100 complete control)
[18] = Preemergence, 125 g ai/ha, 0 to 100 scale (0 no effect, 100 complete control)

Row | SMILES | Plant response rating, Ragweed [1, 15] | Plant response rating, Ragweed [1, 16] | Plant response rating, Ragweed [1, 17] | Ragweed plant response rating [1, 18] | Plant response rating, Kochia [2, 15] | Plant response rating, Kochia [2, 16] | Plant response rating, Kochia [2, 17] | Kochia plant response rating [2, 18] | Plant response rating, Ryegrass, Italian [3, 15] | Plant response rating, Ryegrass, Italian [3, 16] | Plant response rating, Ryegrass, Italian [3, 17] | Ryegrass, Italian plant response rating [3, 18] | Plant response rating, Pigweed [4, 15] | Plant response rating, Pigweed [4, 16] | Plant response rating, Pigweed [4, 17] | Pigweed plant response rating [4, 18] | Plant response rating, Corn [5, 16] | Plant response rating, Corn [5, 17] | Plant response rating, Wheat [6, 16] | Plant response rating, Wheat [6, 17] | also measured
1 | N#Cc1cc(-c2ccccc2Oc2ncc(Cl)cn2)on1 [Compound 223] | 0 | 10 | 0 | 0 | 0 | 10 | 0 | 0 | 0 | 0 | 0 | 0 | 0 | 60 | 20 | 10 | 0 | 0 | 0 | 0 | Plant response rating, Barnyardgrass [7, 15]: 0; Plant response rating, Barnyardgrass [7, 16]: 10; Plant response rating, Barnyardgrass [7, 17]: 0; Barnyardgrass plant response rating [7, 18]: 0; Plant response rating, Foxtail, Giant [8, 15]: 0; Plant response rating, Foxtail, Giant [8, 16]: 10; Plant response rating, Foxtail, Giant [8, 17]: 0; Foxtail, Giant plant response rating [8, 18]: 0; Sedge, Umbrella plant response rating [9]: 70; Rice plant response rating [10]: 0; Barnyardgrass plant response rating [11]: 0; Ducksalad plant response rating [12]: 65; Plant response rating, Blackgrass [13, 16]: 0; Plant response rating, Blackgrass [13, 17]: 0; Plant response rating, Galium [14, 16]: 50; Plant response rating, Galium [14, 17]: 30
2 | CCOC(=O)c1cc(-c2ccccc2Oc2ncc(Cl)cn2)on1 [Compound 225] | 0 | 0 | 0 | 0 | 0 | 0 | 0 | 0 | 0 | 0 | 0 | 0 | 0 | 0 | 0 | 0 | 0 | 0 | 0 | 0 | Plant response rating, Barnyardgrass [7, 15]: 0; Plant response rating, Barnyardgrass [7, 16]: 0; Plant response rating, Barnyardgrass [7, 17]: 0; Barnyardgrass plant response rating [7, 18]: 0; Plant response rating, Foxtail, Giant [8, 15]: 0; Plant response rating, Foxtail, Giant [8, 16]: 0; Plant response rating, Foxtail, Giant [8, 17]: 0; Foxtail, Giant plant response rating [8, 18]: 0; Sedge, Umbrella plant response rating [9]: 0; Rice plant response rating [10]: 0; Barnyardgrass plant response rating [11]: 0; Ducksalad plant response rating [12]: 0; Plant response rating, Blackgrass [13, 16]: 0; Plant response rating, Blackgrass [13, 17]: 0; Plant response rating, Galium [14, 16]: 0; Plant response rating, Galium [14, 17]: 0
3 | FC(F)(F)COc1cc(-c2ccccc2Oc2ncc(Cl)cn2)ncn1 [Compound 227] | 0 | 30 | 10 | 0 | 0 | 80 | 40 | 50 | 0 | 30 | 0 | 10 | 40 | 90 | 60 | 80 | 20 | 10 | 20 | 0 | Plant response rating, Barnyardgrass [7, 15]: 10; Plant response rating, Barnyardgrass [7, 16]: 60; Plant response rating, Barnyardgrass [7, 17]: 10; Barnyardgrass plant response rating [7, 18]: 50; Plant response rating, Foxtail, Giant [8, 15]: 40; Plant response rating, Foxtail, Giant [8, 16]: 60; Plant response rating, Foxtail, Giant [8, 17]: 10; Foxtail, Giant plant response rating [8, 18]: 90; Sedge, Umbrella plant response rating [9]: 85; Rice plant response rating [10]: 0; Barnyardgrass plant response rating [11]: 0; Ducksalad plant response rating [12]: 98; Plant response rating, Blackgrass [13, 16]: 70; Plant response rating, Blackgrass [13, 17]: 10; Plant response rating, Galium [14, 16]: 80; Plant response rating, Galium [14, 17]: 70
4 | Clc1cnc(Oc2ccccc2-c2ccsc2)nc1 [Compound 231] | 0 | 0 | 0 | 0 | 0 | 40 | 20 | 0 | 0 | 0 | 0 | 0 | 0 | 40 | 20 | 20 | 0 | 0 | 0 | 0 | Plant response rating, Barnyardgrass [7, 15]: 0; Plant response rating, Barnyardgrass [7, 16]: 10; Plant response rating, Barnyardgrass [7, 17]: 0; Barnyardgrass plant response rating [7, 18]: 10; Plant response rating, Foxtail, Giant [8, 15]: 0; Plant response rating, Foxtail, Giant [8, 16]: 10; Plant response rating, Foxtail, Giant [8, 17]: 0; Foxtail, Giant plant response rating [8, 18]: 10; Sedge, Umbrella plant response rating [9]: 70; Rice plant response rating [10]: 0; Barnyardgrass plant response rating [11]: 0; Ducksalad plant response rating [12]: 65; Plant response rating, Blackgrass [13, 16]: 0; Plant response rating, Blackgrass [13, 17]: 0; Plant response rating, Galium [14, 16]: 20; Plant response rating, Galium [14, 17]: 0
5 | Brc1cnc(Oc2ccccc2-c2ccsc2)nc1 [Compound 232] | 0 | 0 | 0 | 0 | 0 | 0 | 0 | 0 | 0 | 0 | 0 | 0 | 20 | 40 | 10 | 30 | 0 | 0 | 0 | 0 | Plant response rating, Barnyardgrass [7, 15]: 0; Plant response rating, Barnyardgrass [7, 16]: 0; Plant response rating, Barnyardgrass [7, 17]: 0; Barnyardgrass plant response rating [7, 18]: 20; Plant response rating, Foxtail, Giant [8, 15]: 0; Plant response rating, Foxtail, Giant [8, 16]: 0; Plant response rating, Foxtail, Giant [8, 17]: 0; Foxtail, Giant plant response rating [8, 18]: 10; Sedge, Umbrella plant response rating [9]: 0; Rice plant response rating [10]: 0; Barnyardgrass plant response rating [11]: 0; Ducksalad plant response rating [12]: 0; Plant response rating, Blackgrass [13, 16]: 0; Plant response rating, Blackgrass [13, 17]: 0; Plant response rating, Galium [14, 16]: 0; Plant response rating, Galium [14, 17]: 0

From patent publication US10131652B2, “Pyrimidinyloxy benzene derivatives as herbicides” (E. I. DU PONT DE NEMOURS AND COMPANY, priority 2014, dated 2018)
